We go through three molecules from patent US20230030607A1, “Novel oxygen pulse therapy method for treating COVID19 and viral, bacterial, fungal or parasitic respiratory and other diseases” (priority 2021, published 2023).

“And” between values parts separate entries of the source, which are not always exact repeats. Identical values can stand only once.

For experiment [1], the system named is COVID-19. Conditions: hospitalized patients; cited from earlier work.
Experiment [2] deals with COVID-19. To be noted: in vivo; cited from earlier work.
Experiment [3] deals with SARS-CoV-2.
Experiment [4] concerns SARS-CoV-2. To be noted: human, in vivo.

Turning to `CCN(CCO)CCCC(C)Nc1ccnc2cc(Cl)ccc12` (stereo not shown) [hydroxychloroquine], in the experiment on COVID-19 [1], the “effect on 28-day mortality or the in-hospital course of COVID-19” value is on record as “little or no effect”. Besides, in the experiment on COVID-19 [2], the “benefit for treatment of COVID-19” value was “not been shown to offer any benefit”.
With `O=O` [oxygen], the “use of the therapy in respiratory diseases including SARS-COVID19 infections” value with SARS-CoV-2 [3] (elders, adults and children, most of them immune depressed patients) is reported as “satisfactory used”. Besides, in the experiment on SARS-CoV-2 [3] (human, in vivo), the “new infection for COVID 19 at follow-up” value was “no new infection for COVID 19 has developed”; the time to recovery is 5 days and 3 days. For the same molecule, the “infection for COVID 19 at follow-up” value with SARS-CoV-2 [4] is “no infection for COVID 19 has been developed”.
lopinavir/ritonavir: the “effect on 28-day mortality or the in-hospital course of COVID-19” value in the experiment on COVID-19 [1] is “little or no effect”.
